Source: patent US10323063B2, “Advanced macromolecule transduction domain (aMTD) sequences for improvement of cell-permeability, polynucleotides encoding the same, method to identify the unique features of aMTDs comprising the same, method to develop the aMTD sequences comprising the same” (CELLIVERY THERAPEUTICS, INC., priority 2014, dated 2019)

System: RAW 264.7 cells
Experiment: Quantitative cell-permeability of FITC-labeled aMTD- or rPeptide-fused CRA recombinant proteins by flow cytometry
Format: cell-based
Conditions: cell-permeability of aMTD-fused CRA recombinant protein relative to negative control (A: rP38)
Excerpt: The aMTDs and rPeptides were fluorescently labeled and compared based on the critical factors for cell-permeability by using flow cytometry and confocal laser scanning microscopy (FIG. 5 to 8). The cellular uptake of the peptide-fused non-functional cargo recombinant proteins could quantitatively be evaluated in flow cytometry, while confocal laser scanning microscopy allows intracellular uptake to be assessed visually. The analysis included recombinant proteins fused to a negative control [rP38] that has opposite characteristics (hydrophilic and aromatic sequence: YYNQSTCGGQCY) to the aMTDs (hydrophobic and aliphatic sequences). Relative cell-permeability (relative fold) of aMTDs to the negative control was also analyzed (TABLE 39 and FIG. 9).
Geometric means of negative control (histidine-tagged rP38-fused CRA recombinant protein) subtracted by that of naked protein (histidine-tagged CRA protein) lacking any peptide (rP38 or aMTD) was standardized as relative fold of 1.
For quantitative cell-permeability, the aMTD- or rPeptide-fused recombinant proteins were conjugated to fluorescein isothiocyanate (FITC) according to the manufacturer's instructions (Sigma-Aldrich, St. Louis, Mo.). RAW 264.7 cells were treated with 10 μM FITC-labeled recombinant proteins for 1 hour at 37° C., washed three times with cold PBS, treated with 0.25% tripsin/EDTA (Sigma-Aldrich, St. Louis, Mo.) for 20 minutes at 37° C. to remove cell-surface bound proteins. Cell-permeability of these recombinant proteins were analyzed by flow cytometry (Guava, Millipore, Darmstadt, Germany) using the FlowJo cytometric analysis software (FIG. 5 to 6). The relative cell-permeability of aMTDs were measured and compared with the negative control (rP38) and reference hydrophobic CPPs (MTM12 and MTD85) (TABLE 47).

Question: For “908 (VALALAPVVVAP; Advanced Macromolecule Transduction Domain (aMTD) Sequences for Improvement of Cell-Permeability) [compound 908]”, which “Relative Ratio (Fold) A” value is on record?
Answer: Its value is 150.6 Fold.

Question: How did the “Relative Ratio (Fold) A” value turn out when “877 (VAIIAVPAVVAP; Advanced Macromolecule Transduction Domain (aMTD) Sequences for Improvement of Cell-Permeability) [compound 877]” was run?
Answer: The value was 14.0 Fold.

Question: For “363 (AVLAVAPALIVP; Advanced Macromolecule Transduction Domain (aMTD) Sequences for Improvement of Cell-Permeability) [compound 363]”, which “Relative Ratio (Fold) A” value is on record?
Answer: The value was 14.7 Fold.

Question: With “747 (VALLAIAPALAP; Advanced Macromolecule Transduction Domain (aMTD) Sequences for Improvement of Cell-Permeability) [compound 747]” as the substance, how does the “Relative Ratio (Fold) A” value read?
Answer: Its value is 22.0 Fold.

Question: For “787 (AVALVPVIVAAP; Advanced Macromolecule Transduction Domain (aMTD) Sequences for Improvement of Cell-Permeability) [compound 787]”, which “Relative Ratio (Fold) A” value is on record?
Answer: The value was 29.3 Fold.

Same assay, conditions: cell-permeability of aMTD-fused CRA recombinant protein relative to negative control rP38 (A type)

Question: For “205 (ALALVPAIAALP; Advanced Macromolecule Transduction Domain (aMTD) Sequences for Improvement of Cell-Permeability) [compound 205]”, which “Relative Ratio (Fold) A” value is on record?
Answer: Its value is 2.6 Fold.

Question: For “23 (VVLVLPAAAAVP; Advanced Macromolecule Transduction Domain (aMTD) Sequences for Improvement of Cell-Permeability) [compound 23]”, which “Relative Ratio (Fold) A” value is on record?
Answer: The value was 4.0 Fold.

Question: “22 (AVVLVPVLAAAP; Advanced Macromolecule Transduction Domain (aMTD) Sequences for Improvement of Cell-Permeability) [compound 22]” was tested. Which “Relative Ratio (Fold) A” value did it give?
Answer: The value was 3.1 Fold.

Question: Which “Relative Ratio (Fold) A” value does the source give for “103 (ALIAAPILALAP; Advanced Macromolecule Transduction Domain (aMTD) Sequences for Improvement of Cell-Permeability) [compound 103]” here?
Answer: Its value is 2.1 Fold.

Same assay, conditions: cell-permeability of aMTD-fused CRA recombinant protein relative to reference CPP (B: MTM12)

Question: For “908 (VALALAPVVVAP; Advanced Macromolecule Transduction Domain (aMTD) Sequences for Improvement of Cell-Permeability) [compound 908]”, which “Relative Ratio (Fold) B” value is on record?
Answer: The value was 100.8 Fold.

Question: How did the “Relative Ratio (Fold) B” value turn out when “877 (VAIIAVPAVVAP; Advanced Macromolecule Transduction Domain (aMTD) Sequences for Improvement of Cell-Permeability) [compound 877]” was run?
Answer: The value was 9.4 Fold.

Question: “363 (AVLAVAPALIVP; Advanced Macromolecule Transduction Domain (aMTD) Sequences for Improvement of Cell-Permeability) [compound 363]” was tested. Which “Relative Ratio (Fold) B” value did it give?
Answer: Its value is 9.8 Fold.

Question: Which “Relative Ratio (Fold) B” value does the source give for “747 (VALLAIAPALAP; Advanced Macromolecule Transduction Domain (aMTD) Sequences for Improvement of Cell-Permeability) [compound 747]” here?
Answer: The value was 14.8 Fold.

Question: “787 (AVALVPVIVAAP; Advanced Macromolecule Transduction Domain (aMTD) Sequences for Improvement of Cell-Permeability) [compound 787]” was tested. Which “Relative Ratio (Fold) B” value did it give?
Answer: Its value is 19.6 Fold.

Same assay, conditions: cell-permeability of aMTD-fused CRA recombinant protein relative to reference CPP (C: MTD85)

Question: With “908 (VALALAPVVVAP; Advanced Macromolecule Transduction Domain (aMTD) Sequences for Improvement of Cell-Permeability) [compound 908]” as the substance, how does the “Relative Ratio (Fold) C” value read?
Answer: The value was 50.9 Fold.

Question: How did the “Relative Ratio (Fold) C” value turn out when “501 (VIVALAVPALAP; Advanced Macromolecule Transduction Domain (aMTD) Sequences for Improvement of Cell-Permeability) [compound 501]” was run?
Answer: The value was 7.3 Fold.

Question: How did the “Relative Ratio (Fold) C” value turn out when “877 (VAIIAVPAVVAP; Advanced Macromolecule Transduction Domain (aMTD) Sequences for Improvement of Cell-Permeability) [compound 877]” was run?
Answer: Its value is 4.7 Fold.

Question: With “363 (AVLAVAPALIVP; Advanced Macromolecule Transduction Domain (aMTD) Sequences for Improvement of Cell-Permeability) [compound 363]” as the substance, how does the “Relative Ratio (Fold) C” value read?
Answer: The value was 4.9 Fold.

Question: “747 (VALLAIAPALAP; Advanced Macromolecule Transduction Domain (aMTD) Sequences for Improvement of Cell-Permeability) [compound 747]” was tested. Which “Relative Ratio (Fold) C” value did it give?
Answer: The value was 7.5 Fold.

Question: “787 (AVALVPVIVAAP; Advanced Macromolecule Transduction Domain (aMTD) Sequences for Improvement of Cell-Permeability) [compound 787]” was tested. Which “Relative Ratio (Fold) C” value did it give?
Answer: The value was 9.9 Fold.

Same assay, conditions: cell-permeability of rPeptide relative to the average of 240 aMTDs

Question: Which “Relative Ratio to aMTD AVE” value does the source give for 57 (QNNCNTSSQGGG) [compound 57] here?
Answer: The value was 0.06.

Same assay, conditions: cell-permeability relative to reference CPP MTD85 (C type)

Question: Which “Relative Ratio (Fold) C” value does the source give for “205 (ALALVPAIAALP; Advanced Macromolecule Transduction Domain (aMTD) Sequences for Improvement of Cell-Permeability) [compound 205]” here?
Answer: Its value is 0.9 Fold.

Question: For “23 (VVLVLPAAAAVP; Advanced Macromolecule Transduction Domain (aMTD) Sequences for Improvement of Cell-Permeability) [compound 23]”, which “Relative Ratio (Fold) C” value is on record?
Answer: Its value is 1.3 Fold.

Question: For “22 (AVVLVPVLAAAP; Advanced Macromolecule Transduction Domain (aMTD) Sequences for Improvement of Cell-Permeability) [compound 22]”, which “Relative Ratio (Fold) C” value is on record?
Answer: The value was 1.1 Fold.

Question: How did the “Relative Ratio (Fold) C” value turn out when “103 (ALIAAPILALAP; Advanced Macromolecule Transduction Domain (aMTD) Sequences for Improvement of Cell-Permeability) [compound 103]” was run?
Answer: The value was 0.7 Fold.

Same assay, conditions: cell-permeability relative to reference CPP MTM12 (B type)

Question: How did the “Relative Ratio (Fold) B” value turn out when “205 (ALALVPAIAALP; Advanced Macromolecule Transduction Domain (aMTD) Sequences for Improvement of Cell-Permeability) [compound 205]” was run?
Answer: The value was 1.7 Fold.

Question: How did the “Relative Ratio (Fold) B” value turn out when “543 (LLAALIAPAALP; Advanced Macromolecule Transduction Domain (aMTD) Sequences for Improvement of Cell-Permeability) [compound 543]” was run?
Answer: Its value is 7.8 Fold.

Question: Which “Relative Ratio (Fold) B” value does the source give for “23 (VVLVLPAAAAVP; Advanced Macromolecule Transduction Domain (aMTD) Sequences for Improvement of Cell-Permeability) [compound 23]” here?
Answer: Its value is 2.6 Fold.

Question: “22 (AVVLVPVLAAAP; Advanced Macromolecule Transduction Domain (aMTD) Sequences for Improvement of Cell-Permeability) [compound 22]” was tested. Which “Relative Ratio (Fold) B” value did it give?
Answer: The value was 2.1 Fold.

Question: “103 (ALIAAPILALAP; Advanced Macromolecule Transduction Domain (aMTD) Sequences for Improvement of Cell-Permeability) [compound 103]” was tested. Which “Relative Ratio (Fold) B” value did it give?
Answer: The value was 1.4 Fold.
